In patent US9427479B2, “Tubulysin derivatives” (MedImmune LLC, priority 2014, dated 2016):
pIC50: −log10 of the molar value.

Assays:
Type in all cases: cell-based
MB231 = test: In vitro proliferation assay (CellTiter-Glo), MB231; details: Homo sapiens; MB231 cells; cultured 72 to 144 hours; CellTiter-Glo cell viability
HCT116 = test: In vitro proliferation assay (CellTiter-Glo), HCT116; details: Homo sapiens, HCT-116; HCT116 cells; cultured 72 to 144 hours; CellTiter-Glo cell viability
DU145 = test: In vitro proliferation assay (CellTiter-Glo), DU145; details: Homo sapiens, DU-145; DU145 cells; cultured 72 to 144 hours; CellTiter-Glo cell viability
Protocol: A panel of human cancer cell lines (DU 145, NCI-N87, and MDA-MB-361) obtained from the American Type Tissue Collection (ATCC) (P.O. Box 1549, Manassa, Va. 20108 (USA)) were used to determine the relative cytotoxicity of tubulysin compounds of the invention. The cells were plated in culture media at a density of 2,000 to 5,000 per well of tissue-culture-treated 96-well plates in a volume of 80 μl and allowed to adhere overnight. A 5× concentration of each compound tested was prepared by diluting the test articles in culture medium. Twenty microliters of each test article was added to cells in duplicate or triplicate such that the final dose curve ranged from 4 μg/ml down to 61 pg/ml in a stepwise 1:4 serial dilution series. The treated cells were cultured at 37° C./5% CO2 for 72 to 144 hours. The CellTiter-Glo Luminescent Viability Assay from Promega was used to determine relative cytotoxicity. Briefly, 100 μl of CellTiter-Glo reagent was added to each well, allowed to incubate for 10 minutes at room temperature with mild shaking and then the […] was read using a Perkin Elmer EnVision luminometer. The percent cell viability was calculated by the following formula: (average luminescence of treated samples/average luminescence of control (untreated) samples)×100. IC50 values were determined using logistic non-linear regression analysis with GraphPad Prism software. Not all compounds were assayed against all cell lines.

SMILES | pIC50 (MB231) | pIC50 (HCT116) | pIC50 (DU145)
CC[C@H](C)[C@H](NC(=O)[C@H]1C[C@H](C)CCN1C)C(=O)N(CC)[C@H](C[C@@H](OC(C)=O)c1nc(C(=O)N[C@@H](Cc2ccc(N)cc2)C[C@H](C)C(=O)O)cs1)C(C)C [Compound 1, (2S,4R)-4-(2-((1R,3R)-1-acetoxy-3-((2S,3S)-2-((2R,4R)-1,4-dimethylpiperidine-2-carboxamido)-N-ethyl-3-methylpentanamido)-4-methylpentyl)thiazole-4-carboxamido)-5-(4-aminophenyl)-2-methylpentanoic acid] | 8.60 | 9.22 | 9.70
CC[C@H](C)[C@H](NC(=O)C1(CC)CCCCN1C)C(=O)N(CC)[C@H](C[C@@H](OC(C)=O)c1nc(C(=O)N[C@@H](Cc2ccc(N)cc2)C[C@H](C)C(=O)O)cs1)C(C)C (stereo partly drawn) [Compound 2, (2S,4R)-4-(2-((1R,3R)-1-acetoxy-3-((2S,3S)—N-ethyl-2-(2-ethyl-1-methylpiperidine-2-carboxamido)-3-methylpentanamido)-4-methylpentyl)thiazole-4-carboxamido)-5-(4-aminophenyl)-2-methylpentanoic acid] |  |  | 9.30
CC[C@H](C)[C@H](NC(=O)[C@@]1(C)CCCCN1C)C(=O)N(CC)[C@H](C[C@@H](OC(C)=O)c1nc(C(=O)N[C@@H](Cc2ccc(N)cc2)C[C@H](C)C(=O)O)cs1)C(C)C [Compound 3, (2S,4R)-4-(2-((1R,3R)-1-acetoxy-3-((2S,3S)-2-((R)-1,2-dimethylpiperidine-2-carboxamido)-N-ethyl-3-methylpentanamido)-4-methylpentyl)thiazole-4-carboxamido)-5-(4-aminophenyl)-2-methylpentanoic acid] |  |  | 9.70
CC[C@H](C)[C@H](NC(=O)[C@H]1CC(C)(C)CCN1C)C(=O)N(C)[C@H](C[C@@H](OC(C)=O)c1nc(C(=O)N[C@@H](Cc2ccccc2)C[C@H](C)C(=O)O)cs1)C(C)C [Compound 4, (2S,4R)-4-(2-((1R,3R)-1-acetoxy-3-((2S,3S)—N,3-dimethyl-2-((R)-1,4,4-trimethylpiperidine-2-carboxamido)pentanamido)-4-methylpentyl)thiazole-4-carboxamido)-2-methyl-5-phenylpentanoic acid] | 8.41 | 8.74 | 8.89
CC[C@H](C)[C@H](NC(=O)[C@H]1C[C@H](C)CCN1C)C(=O)N(C)[C@H](C[C@@H](OC(C)=O)c1nc(C(=O)N[C@@H](Cc2ccccc2)C[C@H](C)C(=O)O)cs1)C(C)C [Compound 5, (2S,4R)-4-(2-((1R,3R)-1-acetoxy-3-((2S,3S)-2-((2R,4R)-1,4-dimethylpiperidine-2-carboxamido)-N,3-dimethylpentanamido)-4-methylpentyl)thiazole-4-carboxamido)-2-methyl-5-phenylpentanoic acid] | 8.47 | 9.30 | 9.05
CC[C@H](C)[C@H](NC(=O)[C@H]1C[C@H](C)CCN1C)C(=O)N(C)[C@H](C[C@@H](OC(C)=O)c1nc(C(=O)N[C@@H](Cc2ccc(N)cc2)C[C@H](C)C(=O)O)cs1)C(C)C [Compound 6, (2S,4R)-4-(2-((1R,3R)-1-acetoxy-3-((2S,3S)-2-((2R,4R)-1,4-dimethylpiperidine-2-carboxamido)-N,3-dimethylpentanamido)-4-methylpentyl)thiazole-4-carboxamido)-5-(4-aminophenyl)-2-methylpentanoic acid] | 8.18 | 8.72 | 8.40
